Laboratory results reported in US20250230193A1, “CYCLIC COMPOUND HAVING SELECTIVE KRAS INHIBITORY EFFECT ON HRAS AND NRAS” (CHUGAI SEIYAKU KABUSHIKI KAISHA, priority 2022, published 2025).

Columns and labels:
[1] = tested on: human lung cancer strain NCI-H441; settings: read-out: NCI-H441 IC50; NCI-H441 cells, 4 days, CellTiter-Glo
[2] = target: GDP-bound KRAS wild-type protein (Homo sapiens, UniProt P01116); assay: Binding to KRAS by surface plasmon resonance (SPR), Single Cycle Kinetics; settings: SPR, Single Cycle Kinetics; GDP-bound KRAS wild-type protein
[3] = target: GDP-bound HRAS wild-type protein (Homo sapiens, UniProt P01112); assay: Binding to HRAS by surface plasmon resonance (SPR), Single Cycle Kinetics; settings: SPR; KD ratio class
[4] = target: GDP-bound NRAS wild-type protein (Homo sapiens, UniProt P01111); assay: Binding to NRAS by surface plasmon resonance (SPR), Single Cycle Kinetics; settings: SPR; KD ratio class
Chain of GDP-bound NRAS wild-type protein (P01111 whole entry): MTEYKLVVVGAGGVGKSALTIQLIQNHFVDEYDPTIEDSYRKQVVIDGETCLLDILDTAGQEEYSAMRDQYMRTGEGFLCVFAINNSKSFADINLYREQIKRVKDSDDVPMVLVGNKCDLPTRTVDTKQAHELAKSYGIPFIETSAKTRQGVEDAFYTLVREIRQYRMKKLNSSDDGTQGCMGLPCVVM

Chain of GDP-bound HRAS wild-type protein (P01112 whole entry): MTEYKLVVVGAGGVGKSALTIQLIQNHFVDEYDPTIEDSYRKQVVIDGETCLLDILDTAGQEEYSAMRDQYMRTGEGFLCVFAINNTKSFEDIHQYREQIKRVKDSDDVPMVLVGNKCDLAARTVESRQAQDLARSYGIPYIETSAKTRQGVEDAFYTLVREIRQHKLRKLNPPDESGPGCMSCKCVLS

| Structure (SMILES) | IC50 [1] | Kd [2] | HRAS/KRAS (ratio of KD value for GDP-bound HRAS wild-type protein to KD value for KRAS) [3] | NRAS/KRAS (ratio of KD value for GDP-bound NRAS wild-type protein to KD value for KRAS) [4] |
| --- | --- | --- | --- | --- |
| CCO[C@@H]1C[C@H]2C(=O)NC3(CCC3)C(=O)N(C)[C@@H](C3CCCC3)C(=O)N(C)[C@H](C(=O)N(C)C)CC(=O)N(C)[C@@H](CC3CC3)C(=O)N[C@@H]([C@@H](C)CC)C(=O)N(C)CC(=O)N(C)[C@H]3C/C=C\CCN(C3=O)[C@@H](Cc3ccc(C)cc3)C(=O)N(C)CC(=O)N[C@@H](CCc3cc(F)c(C(F)(F)F)c(F)c3)C(=O)N2C1 [PP1407] | 18.7 nM | 0.074 nM | A (a compound having 10 or more and less than 20 is denoted as A) | A (a compound having 10 or more and less than 20 is denoted as A) |
| CCO[C@@H]1C[C@H]2C(=O)NC3(CCC3)C(=O)N(C)[C@@H](C3CCCC3)C(=O)N(C)[C@H](C(=O)N3CCCC3)CC(=O)N(C)[C@@H](CC)C(=O)N[C@@H]([C@@H](C)CC)C(=O)N(C)CC(=O)N(C)[C@H]3C/C=C\CCN(C3=O)[C@@H](CC3CCC(F)(F)CC3)C(=O)N(C)CC(=O)N[C@@H](CCc3cc(F)c(C(F)(F)F)c(F)c3)C(=O)N2C1 [PP1442] | 48.3 nM | 0.13 nM | A (a compound having 10 or more and less than 20 is denoted as A) | A (a compound having 10 or more and less than 20 is denoted as A) |
| CCO[C@@H]1C[C@H]2C(=O)NC3(CCC3)C(=O)N(C)[C@@H](C3CCCC3)C(=O)N(C)[C@H](C(=O)N(C)C)CC(=O)N(C)[C@@H](CC3CC3)C(=O)N[C@@H]([C@@H](C)CC)C(=O)N(C)CC(=O)N(C)[C@H]3C/C=C\CCN(C3=O)[C@@H](CC3CCC(F)(F)CC3)C(=O)N(C)CC(=O)N[C@@H](CCc3cc(F)c(C(F)(F)F)c(F)c3)C(=O)N2C1 [PP1447] | 28.9 nM | 0.12 nM | A (a compound having 10 or more and less than 20 is denoted as A) | A (a compound having 10 or more and less than 20 is denoted as A) |
| CCC[C@H]1C(=O)N[C@@H]([C@@H](C)CC)C(=O)N(C)CC(=O)N(C)[C@H]2C/C=C\CCN(C2=O)[C@@H](CC2CCC(F)(F)CC2)C(=O)N(C)CC(=O)N[C@@H](CCc2cc(F)c(C(F)(F)F)c(F)c2)C(=O)N2C[C@H](OCC)C[C@H]2C(=O)NC2(CCC2)C(=O)N(C)[C@@H](C2CCCC2)C(=O)N(C)[C@H](C(=O)N(C)C)CC(=O)N1C [PP1450] | 50.1 nM | 0.14 nM | A (a compound having 10 or more and less than 20 is denoted as A) | A (a compound having 10 or more and less than 20 is denoted as A) |
| CC[C@H](C)[C@@H]1NC(=O)[C@H](CC)N(C)C(=O)C[C@@H](C(=O)N(C)C)N(C)C(=O)[C@H](C2CCCC2)N(C)C(=O)C2(CCC2)NC(=O)[C@@H]2C[C@@H](C(F)(F)F)CN2C(=O)[C@H](CCc2cc(F)c(C(F)(F)F)c(F)c2)NC(=O)CN(C)C(=O)[C@H](CC2CCC(F)(F)CC2)N2CC/C=C\C[C@@H](C2=O)N(C)C(=O)CN(C)C1=O [PP1451] | 61.1 nM | 0.14 nM | A (a compound having 10 or more and less than 20 is denoted as A) | A (a compound having 10 or more and less than 20 is denoted as A) |
| C=CC[C@H]1C(=O)N[C@@H]([C@@H](C)CC)C(=O)N(C)CC(=O)N(C)[C@H]2C/C=C\CCN(C2=O)[C@@H](CC2CCC(F)(F)CC2)C(=O)N(C)CC(=O)N[C@@H](CCc2cc(F)c(C(F)(F)F)c(F)c2)C(=O)N2C[C@H](OCC)C[C@H]2C(=O)NC2(CCC2)C(=O)N(C)[C@@H](C2CCCC2)C(=O)N(C)[C@H](C(=O)N(C)C)CC(=O)N1C [PP1454] | 15.2 nM | 0.096 nM | A (a compound having 10 or more and less than 20 is denoted as A) | A (a compound having 10 or more and less than 20 is denoted as A) |
